Results as given in paper PMC9728974 (Science Advances, 2022).
One block for each compound: values may come before it.

How the values were obtained:
[1] = target: PmiR (PA0797), wild type (Pseudomonas aeruginosa PAO1); test: SEC
[2] = target: T1, truncated PmiR protein (amino acids 15 to 232) (Pseudomonas aeruginosa, UniProt Q9I5E1); test: ITC; format: binding
T1 sequence (Q9I5E1 15-232): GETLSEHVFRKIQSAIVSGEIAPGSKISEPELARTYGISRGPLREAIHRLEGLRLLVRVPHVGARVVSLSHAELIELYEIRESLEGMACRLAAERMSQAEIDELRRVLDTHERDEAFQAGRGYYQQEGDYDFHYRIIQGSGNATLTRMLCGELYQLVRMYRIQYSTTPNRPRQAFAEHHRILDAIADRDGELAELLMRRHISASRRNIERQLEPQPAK

PmiR = target: T2, PmiR (Pseudomonas aeruginosa, UniProt Q9I5E1); test: ITC; format: binding
T2 sequence (Q9I5E1 1-240): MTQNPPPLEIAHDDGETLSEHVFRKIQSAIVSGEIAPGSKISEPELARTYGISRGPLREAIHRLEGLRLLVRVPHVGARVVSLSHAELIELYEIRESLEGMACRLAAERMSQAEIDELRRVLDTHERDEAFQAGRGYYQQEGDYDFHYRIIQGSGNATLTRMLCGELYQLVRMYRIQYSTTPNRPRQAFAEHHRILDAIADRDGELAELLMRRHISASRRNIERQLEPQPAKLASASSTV

PrpB = target: T3, PrpB (Pseudomonas aeruginosa, UniProt Q9I5E2); test: HPLC-UV, A214; format: biochemical; details: 1.0 mM; 1 mM tris-HCl pH 7.5
T3 sequence (Q9I5E2 1-298): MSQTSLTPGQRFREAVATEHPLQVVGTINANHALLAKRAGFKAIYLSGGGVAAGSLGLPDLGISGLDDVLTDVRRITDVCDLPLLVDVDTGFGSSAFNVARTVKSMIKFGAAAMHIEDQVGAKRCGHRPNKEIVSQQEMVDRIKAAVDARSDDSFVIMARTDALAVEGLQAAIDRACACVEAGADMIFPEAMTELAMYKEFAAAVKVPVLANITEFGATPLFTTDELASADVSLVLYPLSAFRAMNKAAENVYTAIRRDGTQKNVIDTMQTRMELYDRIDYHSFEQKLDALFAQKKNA

Compound: PmiR (PA0797), wild type (natural protein)
- stoichiometry N [1]: 2

- Kd [2]: 62.9 µM
- Kd (PmiR): 21.8 µM
Compound: C[C@](O)(C(=O)O)[C@H](CC(=O)O)C(=O)O (racemic) [MIC]

Compound: CC(=O)C(=O)O [pyruvate]
- HPLC-UV, A214 (PrpB): PrpB, methylisocitrate lyase, was the last but critical enzyme to convert MIC to succinate and pyruvate

- Kd (PmiR): 64.1 µM
Compound: O=C(O)C[C@H](C(=O)O)[C@@H](O)C(=O)O [isocitrate]
